Measured values published in patent publication US12077503B2, “Substituted cyclic amides and their use as herbicides” (FMC CORPORATION, priority 2015, dated 2024).

Tests used:
Format in all cases: in vivo
[1] = tested on: barnyardgrass (Echinochloa crus-galli); experiment: Test G Pre-Emergence Protocol; conditions: Echinochloa crus-galli, pre-emergence, 312 h, evaluated after 13 days; for pest or weed control at 15.625 g/ha: 15.625 g ai/ha, read-out: Barnyard grass damage rating (100=total damage to plant; 0=no damage to plant); for pest or weed control at 62.5 g/ha: 62.5 g ai/ha, 100=total damage to plant, 0=no damage to plant, read-out: plant damage rating, Barnyardgrass; for pest or weed control at 250 g/ha: 250 g ai/ha, read-out: Barnyardgrass damage rating (100=total damage to plant; 0=no damage to plant)
Protocol: (§1) Seeds of corn (Zea mays), giant foxtail (Setaria faberi), barnyardgrass (Echinochloa crus-galli), ivy-leaved morning glory (Ipomoea hederacea), redroot pigweed (Amaranthus retroflexus) and velvetleaf (Abutilon theophrasti) were sown in standard soil in pots. After cultivation for one day under controlled conditions in a glasshouse (at 24/16° C., day/night; 14 hours light; 65% humidity), the plants were sprayed with an aqueous spray solution derived from the formulation of the technical active ingredient in acetone/water (50:50) solution containing 0.5% Tween 20 (polyoxyethylene sorbitan monolaurate, CAS RN 9005-64-5) to give a final dose of 15.625, 62.5 or 250 g/ha of test compound.
(§2) The test plants were then grown on under controlled conditions in a glasshouse (at 24/16° C., day/night; 14 hours light; 65% humidity) and watered twice daily. After 13 days the test was evaluated (100=total damage to plant; 0=no damage to plant). A dash (-) means no test result.

[2] = tested on: velvetleaf (Abutilon theophrasti); experiment: Test G Pre-Emergence Protocol; conditions: Abutilon theophrasti, pre-emergence, 312 h, evaluated after 13 days; for pest or weed control at 15.625 g/ha: 15.625 g ai/ha; for pest or weed control at 15.625 g/ha / pest or weed control at 250 g/ha: read-out: Velvetleaf damage rating (100=total damage to plant; 0=no damage to plant); for pest or weed control at 62.5 g/ha: 62.5 g ai/ha, 100=total damage to plant, 0=no damage to plant, read-out: plant damage rating, Velvetleaf; for pest or weed control at 250 g/ha: 250 g ai/ha
Protocol: as §1, §2

[3] = tested on: giant foxtail (Setaria faberi); experiment: Test G Pre-Emergence Protocol; conditions: Setaria faberi, pre-emergence, 312 h, evaluated after 13 days; for pest or weed control at 15.625 g/ha: 15.625 g ai/ha; for pest or weed control at 15.625 g/ha / pest or weed control at 250 g/ha: read-out: Foxtail, Giant damage rating (100=total damage to plant; 0=no damage to plant); for pest or weed control at 62.5 g/ha: 62.5 g ai/ha, 100=total damage to plant, 0=no damage to plant, read-out: plant damage rating, Foxtail, Giant; for pest or weed control at 250 g/ha: 250 g ai/ha
Protocol: as §1, §2

[4] = tested on: ivy-leaved morning glory (Ipomoea hederacea); experiment: Test G Pre-Emergence Protocol; conditions: Ipomoea, pre-emergence, 312 h, evaluated after 13 days; for pest or weed control at 15.625 g/ha: 15.625 g ai/ha, read-out: Morning-glory, Ivy-leaved damage rating (100=total damage to plant; 0=no damage to plant); for pest or weed control at 62.5 g/ha: 62.5 g ai/ha, 100=total damage to plant, 0=no damage to plant, read-out: plant damage rating, Morningglory, Ivy-leaved; for pest or weed control at 250 g/ha: 250 g ai/ha, read-out: Morningglory, Ivy-leaved damage rating (100=total damage to plant; 0=no damage to plant)
Protocol: as §1, §2

corn (Zea mays) [5] = experiment: Test G Pre-Emergence Protocol; conditions: Zea mays, pre-emergence, 312 h, evaluated after 13 days; for plant injury at 15.625 g/ha: 15.625 g ai/ha; for plant injury at 15.625 g/ha / plant injury at 250 g/ha: read-out: Corn damage rating (100=total damage to plant; 0=no damage to plant); for plant injury at 62.5 g/ha: 62.5 g ai/ha, 100=total damage to plant, 0=no damage to plant, read-out: plant damage rating, Corn; for plant injury at 250 g/ha: 250 g ai/ha
Protocol: as §1, §2

[6] = tested on: redroot pigweed (Amaranthus retroflexus); experiment: Test G Pre-Emergence Protocol; conditions: Amaranthus retroflexus, pre-emergence, 312 h, evaluated after 13 days; for pest or weed control at 15.625 g/ha: 15.625 g ai/ha; for pest or weed control at 15.625 g/ha / pest or weed control at 250 g/ha: read-out: Pigweed, Redroot damage rating (100=total damage to plant; 0=no damage to plant); for pest or weed control at 62.5 g/ha: 62.5 g ai/ha, 100=total damage to plant, 0=no damage to plant, read-out: plant damage rating, Pigweed, Redroot; for pest or weed control at 250 g/ha: 250 g ai/ha
Protocol: as §1, §2

[7] = tested on: barnyardgrass (Echinochloa crus-galli); experiment: Test G Post-Emergence Protocol; conditions: Echinochloa crus-galli, post-emergence, 312 h; for pest or weed control at 15.625 g/ha: 15.625 g ai/ha, evaluated after 13 days (100=total damage to plant; 0=no damage to plant), read-out: Barnyardgrass damage rating; for pest or weed control at 62.5 g/ha: 62.5 g ai/ha, read-out: Barnyardgrass damage rating (100=total damage to plant; 0=no damage to plant); for pest or weed control at 62.5 g/ha / pest or weed control at 250 g/ha: evaluated after 13 days; for pest or weed control at 250 g/ha: 250 g ai/ha, read-out: damage to plant, Barnyardgrass (100=total damage to plant; 0=no damage to plant)
Protocol: as §1, with “8 days” for “one day”
as §2

[8] = tested on: velvetleaf (Abutilon theophrasti); experiment: Test G Post-Emergence Protocol; conditions: Abutilon theophrasti, post-emergence, 312 h; for pest or weed control at 15.625 g/ha: 15.625 g ai/ha, evaluated after 13 days (100=total damage to plant; 0=no damage to plant), read-out: Velvetleaf damage rating; for pest or weed control at 62.5 g/ha: 62.5 g ai/ha, read-out: Velvetleaf damage rating (100=total damage to plant; 0=no damage to plant); for pest or weed control at 62.5 g/ha / pest or weed control at 250 g/ha: evaluated after 13 days; for pest or weed control at 250 g/ha: 250 g ai/ha, read-out: damage to plant, Velvetleaf (100=total damage to plant; 0=no damage to plant)
Protocol: as §1, with “8 days” for “one day”
as §2

[9] = tested on: giant foxtail (Setaria faberi); experiment: Test G Post-Emergence Protocol; conditions: Setaria faberi, post-emergence, 312 h; for pest or weed control at 15.625 g/ha: 15.625 g ai/ha, evaluated after 13 days (100=total damage to plant; 0=no damage to plant), read-out: Foxtail, Giant damage rating; for pest or weed control at 62.5 g/ha: 62.5 g ai/ha, read-out: Foxtail, Giant damage rating (100=total damage to plant; 0=no damage to plant); for pest or weed control at 62.5 g/ha / pest or weed control at 250 g/ha: evaluated after 13 days; for pest or weed control at 250 g/ha: 250 g ai/ha, read-out: damage to plant, Foxtail, Giant (100=total damage to plant; 0=no damage to plant)
Protocol: as §1, with “8 days” for “one day”
as §2

[10] = tested on: ivy-leaved morning glory (Ipomoea hederacea); experiment: Test G Post-Emergence Protocol; conditions: Ipomoea, post-emergence, 312 h; for pest or weed control at 15.625 g/ha: 15.625 g ai/ha, evaluated after 13 days (100=total damage to plant; 0=no damage to plant), read-out: Morningglory, Ivy-leaved damage rating; for pest or weed control at 62.5 g/ha: 62.5 g ai/ha, read-out: Morningglory, Ivy-leaved damage rating (100=total damage to plant; 0=no damage to plant); for pest or weed control at 62.5 g/ha / pest or weed control at 250 g/ha: evaluated after 13 days; for pest or weed control at 250 g/ha: 250 g ai/ha, read-out: damage to plant, Morningglory, Ivy-leaved (100=total damage to plant; 0=no damage to plant)
Protocol: as §1, with “8 days” for “one day”
as §2

corn (Zea mays) [11] = experiment: Test G Post-Emergence Protocol; conditions: Zea mays, post-emergence, 312 h; for plant injury at 15.625 g/ha: 15.625 g ai/ha, evaluated after 13 days (100=total damage to plant; 0=no damage to plant), read-out: Corn damage rating; for plant injury at 62.5 g/ha: 62.5 g ai/ha, read-out: Corn damage rating (100=total damage to plant; 0=no damage to plant); for plant injury at 62.5 g/ha / plant injury at 250 g/ha: evaluated after 13 days; for plant injury at 250 g/ha: 250 g ai/ha, read-out: damage to plant, Corn (100=total damage to plant; 0=no damage to plant)
Protocol: as §1, with “8 days” for “one day”
as §2

[12] = tested on: redroot pigweed (Amaranthus retroflexus); experiment: Test G Post-Emergence Protocol; conditions: Amaranthus retroflexus, post-emergence, 312 h; for pest or weed control at 15.625 g/ha: 15.625 g ai/ha, evaluated after 13 days (100=total damage to plant; 0=no damage to plant), read-out: Pigweed, Redroot damage rating; for pest or weed control at 62.5 g/ha: 62.5 g ai/ha, read-out: Pigweed, Redroot damage rating (100=total damage to plant; 0=no damage to plant); for pest or weed control at 62.5 g/ha / pest or weed control at 250 g/ha: evaluated after 13 days; for pest or weed control at 250 g/ha: 250 g ai/ha, read-out: damage to plant, Pigweed, Redroot (100=total damage to plant; 0=no damage to plant)
Protocol: as §1, with “8 days” for “one day”
as §2

CN1C[C@@H](c2ccc(C(F)(F)F)cc2)[C@@](O)(C(=O)Nc2cccc(F)c2F)C1=O (racemic) [Compound 1403]
10%: pest or weed control at 250 g/ha [7] | plant injury at 15.625 g/ha (corn (Zea mays) [11]) | plant injury at 62.5 g/ha (corn (Zea mays) [11]) | pest or weed control at 15.625 g/ha [12] | pest or weed control at 62.5 g/ha [12] | pest or weed control at 250 g/ha [12]
0%: pest or weed control at 15.625 g/ha [1] | pest or weed control at 62.5 g/ha [1] | pest or weed control at 250 g/ha [1] | pest or weed control at 15.625 g/ha [2] | pest or weed control at 62.5 g/ha [2] | pest or weed control at 250 g/ha [2] | pest or weed control at 15.625 g/ha [3] | pest or weed control at 62.5 g/ha [3] | pest or weed control at 250 g/ha [3] | pest or weed control at 15.625 g/ha [4] | pest or weed control at 62.5 g/ha [4] | pest or weed control at 250 g/ha [4] | plant injury at 15.625 g/ha (corn (Zea mays) [5]) | plant injury at 62.5 g/ha (corn (Zea mays) [5]) | plant injury at 250 g/ha (corn (Zea mays) [5]) | pest or weed control at 15.625 g/ha [6] | pest or weed control at 62.5 g/ha [6] | pest or weed control at 250 g/ha [6] | pest or weed control at 15.625 g/ha [7] | pest or weed control at 62.5 g/ha [7] | pest or weed control at 15.625 g/ha [8] | pest or weed control at 62.5 g/ha [8] | pest or weed control at 250 g/ha [8] | pest or weed control at 15.625 g/ha [9] | pest or weed control at 62.5 g/ha [9] | pest or weed control at 250 g/ha [9] | pest or weed control at 15.625 g/ha [10] | pest or weed control at 62.5 g/ha [10] | pest or weed control at 250 g/ha [10]
20%: plant injury at 250 g/ha (corn (Zea mays) [11])

Cc1ccc([C@H]2CN(C)C(=O)[C@@H]2C(=O)Nc2ccccc2F)cc1Cl (racemic) [Compound 1420]
50%: plant injury at 62.5 g/ha (corn (Zea mays) [5]) | pest or weed control at 15.625 g/ha [9]
10%: pest or weed control at 15.625 g/ha [7] | pest or weed control at 250 g/ha [8] | pest or weed control at 62.5 g/ha [10] | plant injury at 15.625 g/ha (corn (Zea mays) [11])
40%: pest or weed control at 62.5 g/ha [7] | pest or weed control at 250 g/ha [7] | plant injury at 62.5 g/ha (corn (Zea mays) [11])
0%: pest or weed control at 15.625 g/ha [2] | pest or weed control at 62.5 g/ha [2] | pest or weed control at 250 g/ha [2] | pest or weed control at 15.625 g/ha [4] | pest or weed control at 62.5 g/ha [4] | pest or weed control at 250 g/ha [4] | plant injury at 15.625 g/ha (corn (Zea mays) [5]) | pest or weed control at 15.625 g/ha [6] | pest or weed control at 62.5 g/ha [6] | pest or weed control at 250 g/ha [6] | pest or weed control at 15.625 g/ha [8] | pest or weed control at 62.5 g/ha [8] | pest or weed control at 15.625 g/ha [10] | pest or weed control at 250 g/ha [10] | pest or weed control at 15.625 g/ha [12] | pest or weed control at 62.5 g/ha [12]
60%: pest or weed control at 15.625 g/ha [1] | pest or weed control at 62.5 g/ha [9] | pest or weed control at 250 g/ha [9] | plant injury at 250 g/ha (corn (Zea mays) [11])
80%: pest or weed control at 250 g/ha [1] | pest or weed control at 62.5 g/ha [3] | pest or weed control at 250 g/ha [3]
20%: pest or weed control at 250 g/ha [12]
70%: pest or weed control at 62.5 g/ha [1] | pest or weed control at 15.625 g/ha [3] | plant injury at 250 g/ha (corn (Zea mays) [5])
